Data from patent publication US20210322507A1, “GENOTYPE-DIRECTED LOCAL DELIVERY OF TARGETED THERAPEUTICS” (Massachusetts Institute of Technology, priority 2017, published 2021).

Columns and labels:
[1] = given systemically; cited from earlier work
[2] = Systemic toxicity analysis of oral GMX-1778; type: in vivo, SCID mice
Protocol: Adult SCID female mice of 6-7 weeks were administered GMX-1778 daily for 5 days by oral gavage (250 mg/kg). Body weights were recorded prior to administration and at the end of the study. Blood samples were analyzed for complete blood count by HemaTrue (Heska Lab Systems) and chemistry panel by DriChem (Heska Lab Systems). Liver and heart were fixed in formalin and analyzed for histologic toxicity by hematoxylin and eosin (H&E) staining. Eyes were removed by enucleation and placed in Davidson's fixative for 24 hours prior to formalin and subsequently analyzed for toxicity on H&E slides.

[3] = Pharmacokinetic analysis of GMX-1778 after oral gavage (plasma and brain, UPLC-ESI-MS); type: in vivo, SCID mice; conditions: 250 mg/kg oral gavage
Protocol: GMX-1778 was dissolved in 20% captisol (CyDex) and administered by oral gavage to 6-7 week old female SCID mice at a dose of 250 mg/kg. Vehicle treated animals received similar volume of 5% dextrose prepared in 20% captisol by oral gavage. GMX-1778 treated animals were sacrificed at 30 minutes, 2 hours, 6 hours and 24 hours following treatment. Blood was collected by cardiac puncture and centrifuged at 6000 g for 5 minutes. The brain was homogenized in 3 volumes of PBS with 5% bovine serum albumin (Sigma-Aldrich). GMX-1778 was then extracted into the organic phase by a modified protocol described previously^31. Briefly, 25 μL plasma or 100 μL brain homogenate was added to 10 μL FK-866 (250 ng/mL prepared in methanol). Then, 800 μL ethyl acetate was added and the sample was vortexed and mixed overnight. The sample was then centrifuged at 3000 rpm for 10 minutes and 600 μL supernatant was transferred to a new tube. The sample was dried overnight and reconstituted in 200 μL acetonitrile. Stock solutions of GMX-1778 and an internal standard FK-866 were prepared in acetonitrile at a concentration of 500 μg/mL. A10-point calibration curve ranging from 5 to 5000 ng/mL was prepared. Quality control samples were prepared by a similar procedure using an independent stock solution at three concentrations (25, 250, and 2500 ng/mL). For analysis, 2.5 μL sample was injected on the UPLC-ESI-MS system.
Ultra-performance LC (UPLC) separation was carried out on a Waters UPLC aligned with a Waters Xevo TQ-SMS mass spectrometer (Waters Ltd.). MassLynx 4.1 software was used for data acquisition and analysis. LC separation was performed on an Acquity UPLC High Strength Silica Trifunctional C18 (50 mm×2.1 mm; particle size, 1.8 μm) at 50° C. The mobile phase consisted of acetonitrile, 0.1% formic acid, 10 mM ammonium formate solution flowed at a rate of 0.6 mL/minute using a time and solvent gradient composition. The initial mobile phase composition (100%) was held for 1.0 minutes, and then changed to 20% over the next 0.25 minutes. […]

Compound	Blood-brain barrier penetration / brain accumulation [1]	Liver histology (H&E) ([2]; 250 mg/kg oral GMX-1778)	Hemoglobin (anemia) ([2]; 250 mg/kg oral daily for 5 days, control 9.2±0.5 g/dL) [g/dL]	Uremia (chemistry panel) ([2]; 250 mg/kg oral daily for 5 days, control 15±0.5 mg/dL) [mg/dL]	Body weight after administration (weight loss) ([2]; 250 mg/kg oral daily for 5 days, control dextrose 21.8±0.6 g) [g]	Detectability of drug in brain within 24 hours ([3]; 24 hours)	Maximum (peak) drug concentration in brain ([3]; SCID mice, at 2 hours) [µM]	Maximum (peak) drug concentration in plasma ([3]; SCID mice, at 2 hours) [µM]
O=C(/C=C/c1cccnc1)NCCCCC1CCN(C(=O)c2ccccc2)CC1 [FK866]	does not measurably accumulate in the brain parenchyma							
N#CN=C(NCCCCCCOc1ccc(Cl)cc1)Nc1ccncc1 [GMX-1778]	partially blood-brain barrier penetrant	eosinophilic cholangitis	6.7 ± 0.8	20.5 ± 1.9	17.9 ± 1.1	no longer detectable	3.0 ± 1.5	18.0 ± 3.6
